Here are results for 14 molecules from PubChem BioAssay (NCI).

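Test compounds were applied to cells in 96-well plates for 48 hours at 5 doses. At the GI50, growth is halved. TGI denotes the concentration required for complete inhibition of growth.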

Test systems include ACHN renal; CCRF-CEM leukemia; MCF7 breast; OVCAR-8 ovarian; SF-295 CNS; SR leukemia; U251 CNS; UACC-257 melanoma; UACC-62 melanoma; RXF 393 renal.
Common to all, as to assay: inhibition of tumour cell growth, NCI panel, 48 h

`COc1ccc(OC)c(CNc2ccc(O)c(C(=O)NCCc3ccc(F)cc3)c2)c1`: the TGI in the assay on ACHN renal is greater than 100 µM; in the assay with CCRF-CEM leukemia it was greater than 100 µM; with MCF7 breast, 59.2 µM; with OVCAR-8 ovarian it was 37.6 µM; with SF-295 CNS, 51.7 µM; in the assay on SR leukemia, 12.1 µM. For the same molecule, the TGI with U251 CNS was 24.9 µM; with UACC-257 melanoma, 41 µM; with UACC-62 melanoma, 25.7 µM.
As for `C[C@H](CC[C@@H](O)C(C)(C)O)[C@H]1CC[C@@]2(C)[C@@H]3CC=C4[C@@H](CC[C@H](OC5OC(CO)C(O)C(O)C5O)C4(C)C)[C@]3(C)C(=O)C[C@]12C` (stereo not given in full), the TGI in the assay on ACHN renal was 98.5 µM; in the assay on CCRF-CEM leukemia, 70.9 µM; with MCF7 breast it was greater than 100 µM; in the assay on OVCAR-8 ovarian, greater than 100 µM; with RXF 393 renal, greater than 100 µM; with SF-295 CNS it was greater than 100 µM. Also, the TGI in the assay with U251 CNS, in the assay on UACC-257 melanoma and in the assay on UACC-62 melanoma was greater than 100 µM throughout.
Consider `CCCCNC(=S)/N=C/c1c(O)c2ccccc2oc1=O`, for which the TGI in the assay with ACHN renal, with MCF7 breast, in the assay on OVCAR-8 ovarian, with SF-295 CNS, in the assay with U251 CNS and in the assay on UACC-257 melanoma was greater than 100 µM throughout.
As to `COc1ccc(C2C(C(=O)O)=C(COC(C)=O)Oc3cc4c(cc32)OCO4)cc1` (stereo not given), the TGI with ACHN renal, in the assay with CCRF-CEM leukemia, in the assay with OVCAR-8 ovarian, in the assay on RXF 393 renal, with SF-295 CNS and in the assay on U251 CNS was greater than 100 µM throughout. Also, the TGI in the assay on UACC-257 melanoma and in the assay on UACC-62 melanoma was greater than 100 µM each time.
For the molecule `O=C(c1ccc(Cl)cc1)N1N=C(c2ccc(Cl)cc2)CC1(O)c1cc(F)c(Cl)cc1Cl` (stereo not given), the TGI was 62.2 µM in the assay with ACHN renal; greater than 100 µM with CCRF-CEM leukemia; greater than 100 µM with MCF7 breast; greater than 100 µM in the assay with OVCAR-8 ovarian; greater than 100 µM with RXF 393 renal; greater than 100 µM in the assay with SF-295 CNS. Also, the values for the TGI with U251 CNS, in the assay on UACC-257 melanoma and in the assay on UACC-62 melanoma were 37.3 µM, greater than 100 µM and 63.3 µM, respectively.
As to `O=C(Nc1ccc2ccccc2c1)Nn1cnnc1`, the TGI with ACHN renal, in the assay with CCRF-CEM leukemia, in the assay on MCF7 breast, in the assay on OVCAR-8 ovarian, in the assay on SF-295 CNS and in the assay on SR leukemia was greater than 100 µM in each case. For the same molecule, the TGI in the assay on U251 CNS, in the assay on UACC-257 melanoma and with UACC-62 melanoma was greater than 100 µM throughout.
As to `Cc1cc(S(=O)(=O)O)ccc1N=Nc1ccc(N=Nc2c(O)ccc3ccccc23)c(C)c1`, the TGI is greater than 100 µM in the assay on ACHN renal; 60.8 µM in the assay with CCRF-CEM leukemia; greater than 100 µM with OVCAR-8 ovarian; greater than 100 µM in the assay with RXF 393 renal; greater than 100 µM with SF-295 CNS; greater than 100 µM with U251 CNS. For the same molecule, the TGI in the assay with UACC-257 melanoma and with UACC-62 melanoma was greater than 100 µM in each case.
For `Oc1c(I)cc(I)cc1CNCCCN(Cc1ccccn1)Cc1ccccn1`, the GI50 in the assay with ACHN renal was 0.912 µM; in the assay with CCRF-CEM leukemia, 1.54 µM; in the assay with MCF7 breast it was 1.2 µM; in the assay with OVCAR-8 ovarian, 1.25 µM; with RXF 393 renal, 0.866 µM; in the assay on SF-295 CNS, 0.885 µM. The GI50 with U251 CNS is 1.11 µM; with UACC-257 melanoma it was 1.21 µM; in the assay with UACC-62 melanoma, 0.907 µM. For the same molecule, the TGI is 1.65 µM with ACHN renal; 50 µM in the assay on CCRF-CEM leukemia; 3.59 µM in the assay on MCF7 breast; 3.27 µM in the assay on OVCAR-8 ovarian; 1.66 µM in the assay on RXF 393 renal; 1.74 µM with SF-295 CNS. Moreover, the TGI in the assay with U251 CNS was 2.68 µM; with UACC-257 melanoma, 3.39 µM; in the assay on UACC-62 melanoma it was 1.74 µM.
With `CCN(CC)C(=O)c1c(N2CCOCC2)cc(N(CC)CC)oc1=O`, the TGI in the assay on ACHN renal, in the assay on CCRF-CEM leukemia, with OVCAR-8 ovarian, in the assay on RXF 393 renal, with SF-295 CNS and with SR leukemia was greater than 100 µM throughout. Moreover, the TGI in the assay with U251 CNS, in the assay with UACC-257 melanoma and with UACC-62 melanoma was greater than 100 µM in each case.
Regarding `NCCCn1c2c(c3ccc([N+](=O)[O-])cc3c1=O)C(=O)c1cc3c(cc1-2)OCO3`, the GI50 in the assay on ACHN renal was less than 0.01 µM; with CCRF-CEM leukemia, 0.0164 µM; in the assay with OVCAR-8 ovarian it was 0.106 µM; with SR leukemia, 0.0225 µM; with UACC-257 melanoma, 0.372 µM; in the assay on UACC-62 melanoma, 0.0288 µM. For the same molecule, the TGI with CCRF-CEM leukemia was greater than 100 µM; in the assay on OVCAR-8 ovarian, 0.402 µM; in the assay on SR leukemia, greater than 100 µM; in the assay on UACC-257 melanoma, 3 µM; with UACC-62 melanoma it was 1.65 µM.
Take `COc1ccc(N2C(=O)C3c4[nH]c5ccccc5c4C4CCC(C(C)C)CC4C3C2=O)cc1` (stereo not given): the TGI in the assay with ACHN renal, in the assay on CCRF-CEM leukemia, in the assay with MCF7 breast, with OVCAR-8 ovarian, in the assay on SF-295 CNS and in the assay with SR leukemia was greater than 100 µM throughout. In addition, the TGI in the assay with U251 CNS, in the assay on UACC-257 melanoma and with UACC-62 melanoma was greater than 100 µM in each case.
As for `C[C@]12CCC(=O)C=C1CC[C@@H]1[C@@H]2C(=O)C[C@@]2(C)[C@H]1CC[C@]2(O)C(=O)CO`, the TGI in the assay on ACHN renal, with CCRF-CEM leukemia, with OVCAR-8 ovarian, with RXF 393 renal, in the assay with SF-295 CNS and in the assay with SR leukemia was greater than 100 µM throughout. In the assay on U251 CNS, this molecule had a TGI greater than 100 µM.
For `CC(=O)c1ccc(NC(=O)/C(=N\NC(N)=O)C(C#N)CC(C)(C)C=O)cc1` (stereo not given), the TGI in the assay on ACHN renal, in the assay with CCRF-CEM leukemia, in the assay on OVCAR-8 ovarian, in the assay on RXF 393 renal, in the assay on SF-295 CNS and with SR leukemia was greater than 100 µM in each case. Moreover, the TGI with U251 CNS, with UACC-257 melanoma and with UACC-62 melanoma was greater than 100 µM in each case.
As for `Cc1cccc2c(N)c3cccc(C(=O)NCC[N+](C)(C)Cc4sc(N5CCOCC5)nc4[N+](=O)[O-])c3nc12`, the TGI was found to be 2.28 µM in the assay with ACHN renal; 26.9 µM in the assay on CCRF-CEM leukemia; 13.5 µM with MCF7 breast; 17.4 µM in the assay with OVCAR-8 ovarian; 20.8 µM in the assay on RXF 393 renal; 14.3 µM with SF-295 CNS. The results for the TGI in the assay with U251 CNS, with UACC-257 melanoma and in the assay on UACC-62 melanoma were greater than 100 µM, 43 µM and 18.6 µM, respectively.
